Experimental data from patent US7505101B2, “Liquid crystal display” (Fujifilm Corporation, priority 2004, dated 2009).

Experiment: octanol-water partition coefficient (Log P value)
Assay type: physicochemical
Conditions: octanol-water distribution coefficient
Text: In the preparation of the cellulose acylate film according to the invention, among the aforementioned compound for suppressing an alignment of cellulose acylate in the film along the in-plane direction and the direction of film thickness thereby sufficiently reducing Rth, preferred is a compound having an octanol-water distribution coefficient (log P value) within a range of from 0 to 7. […] Also, a compound having a log P value or 0 or more has a lower hydrophilicity and thus can suppress deterioration of the water resistance of the cellulose acylate film. The log P value is more preferably within a range of from 1 to 6, and particularly preferably 1.5 to 5. The octanol-water distribution coefficient (log P value) can be measured by a flask […] method described in Japan Industrial Standards (JIS) Z7260-107 (2000). The octanol-water distribution coefficient (log P value) may also be estimated, instead of an actual measurement, by a calculational chemical method or an empirical method. […]

logP	SMILES
5.6	CCCCCCCCOc1ccc(C(=O)c2ccccc2)c(O)c1 [UV-102]
2.9	Cc1ccc(S(=O)(=O)Nc2ccccc2)cc1 [A-19]
